Several values for one entry are separate records, joined by “and”; a condition that tells them apart may be missing. Equal entries are not always repeated. Activity calls are given as the source filed them.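 Rule for the calls: active = compounds giving half or more protection of infected cells from virus-caused growth loss, again on retest; inactive = the rest.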
System: CEM cells HIV-1 protection, formazan growth assay
Experiment: NCI AIDS Antiviral Assay
Settings: for IC50: measured here: growth of uninfected CEM cells
In short: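 Protection of CEM cells against HIV-1 measured as cell growth via soluble formazan read-out, with five concentrations tested on both infected and uninfected cells; failure to protect may reflect toxicity.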

Row | SMILES | EC50 | IC50 | outcome
1 | Nc1nc(=O)nc2[nH]c3c4cccc5cccc(c3nc12)c54 | > 200 µM | 141 µM and > 200 µM | –
2 | N#Cc1cccc2c1Nc1ccccc1S2 | > 23.4 µM | > 23.4 µM | –
3 | Cn1c(CCC2(C)Cc3ccccc3C(=O)O2)cc2ccccc2c1=O (stereo not given) | > 200 µM | 36.3 µM | –
4 | CCCCCCCCCCCCCCCCCCOC(COP(=O)(O)OCC1CCC(n2ccc(NC(=O)CCCCCCCCCCCCCCC)nc2=O)O1)COP(=O)(O)OCC1OC(n2cc(C)c(=O)[nH]c2=O)CC1N=[N+]=[N-] (stereo not given) | 0.871 µM | 50.1 µM | –
5 | CC1(C)C(=O)/C=C\C(=O)C(C)(C)C2=CC=C(O2)C(C)(C)C(=O)C(Br)C(Br)C(=O)C(C)(C)C2=CC=C1O2 (stereo not given) | – | – | inactive
6 | O=C(Nn1c(-c2ccccc2)nc2ccccc2c1=O)c1ccccc1O | > 200 µM | 17.4 µM | –
7 | NC(N)=NCCN1CCCCCCC1 | > 200 µM | > 200 µM | –
8 | C[P+]1(c2ccccc2)CCC(N)=C(C#N)C1 (stereo not given) | > 1070 µM | > 1070 µM | –
9 | NC(=O)c1c[se]c(C2OC(COP(=O)(O)CP(=O)(O)OCC3OC(n4cnc5c(N)ncnc54)C(O)C3O)C(O)C2O)n1 (stereo not given) | > 100 µM | 16.6 µM | –
10 | CS1(C)=Nc2c([N+](=O)[O-])cc([N+](=O)[O-])cc2S(=O)(=O)N=1 | > 112 µM | 58.9 µM | –
11 | COc1nc(=O)n(C2CC(F)C(CO)O2)cc1C (stereo not given) | 79.4 µM | > 200 µM | –
12 | Clc1cccc(-c2nnc(-c3nn(-c4ccccc4)c4nc5ccccc5nc34)o2)c1 | > 4.68 µM | > 4.68 µM | –
13 | N#Cc1c2nc3ccccc3nc2n2ccccc12 | > 40.7 µM | > 40.7 µM | –
14 | CC1=CC2c3c(O)cc(-c4cc5ccc(O)cc5o4)cc3OC3(c4ccc(O)c5c4OC(C)(C)C=C5)Oc4cc(O)ccc4[C@H](C1)C23 (stereo not given in full) | > 20.9 µM | 3.72 µM | –
15 | Cc1ccc(SSc2ccc(C)cc2[N+](=O)[O-])c([N+](=O)[O-])c1 | > 200 µM | 9.33 µM and 14.5 µM | –
16 | O=C(N[C@H]1CCC[C@H]1C(=O)Nc1ccc(C(F)(F)F)cc1)OCc1ccccc1 | > 200 µM | > 200 µM | –
17 | COc1cc2cc(C(=O)N3CC(CCl)c4ccc(NCCN)cc43)[nH]c2c(OC)c1OC (stereo not given) | > 2 µM | 0.813 µM | –
18 | CCc1ccccc1NC(=O)C(=O)C1C(=O)N(c2ccccc2)N=C1N (stereo not given) | > 708 µM | 224 µM | –
19 | O=C(NC1C2CC3CC(C2)CC1C3)c1ccncn1 (stereo not given) | > 513 µM | > 513 µM | –
20 | CC(C)CCCC(C)[C@H]1CC[C@H]2[C@H]3CC[C@@H]4C[C@H](CCC=C(c5cc(Cl)c(O)c(C(=O)O)c5)c5cc(Cl)c(O)c(C(=O)O)c5)CC[C@]4(C)[C@H]3CC[C@]12C (stereo not given in full) | 41.7 µM | > 200 µM | –
21 | CC(=O)OC1CC2C(C)(C)C(=O)C=C[C@]2(C)C2CCC3(C)C(c4ccoc4)C(=O)C4OC43[C@]12C (stereo not given in full) | – | – | inactive
22 | N.N.N.N.O=C([O-])C(=O)O.O=C([O-])C(=O)[O-].[Co+3] | – | – | inactive

Row | SMILES | EC50 | IC50 | outcome
23 | COc1cc2c(cc1OC)C1CNC(C2)c2cc(OC)c(OC)cc21 (stereo not given) | > 200 µM | > 200 µM | –
24 | O=C(O)c1ccc(Nc2nc3ccccc3nc2C(=O)O)cc1 | > 200 µM | > 200 µM | –
25 | N#CC=Cc1ccc([N+](=O)[O-])s1 (mixture of isomers) | > 2 µM | 0.166 µM | –
26 | C/C(CCn1[nH]c(=O)ccc1=O)=N\NC(=O)C(N)=O | > 676 µM | > 676 µM | –
27 | CC(=O)NC1C(OCC(=O)NCCNc2ccc([N+](=O)[O-])c3[nH]c4ccccc4c(=O)c23)C(O)C(CO)OC1(C)OCc1ccccc1 (stereo not given) | > 200 µM | > 200 µM | –
28 | C/C=C1\CN(C)C2Cc3c([nH]c4ccccc34)[C@H](c3c(OC)ccc4c5c([nH]c34)C3(C(=O)OC)CC4CC(CC)C3N(CC5)C4)CC1C2C(=O)OC (stereo not given in full) | – | – | inactive
29 | O=P(O)(O)C1CCCC(P(=O)(O)O)N1 (stereo not given) | – | – | inactive
30 | S=c1[nH]c2ccc(Br)cc2c(=S)n1-c1ccccc1 | > 195 µM | 56.2 µM | –
31 | COc1ccc(N=N/C(=N\NC(=O)c2cc(Br)ccc2O)c2ccc(N(CCC#N)CCC#N)cc2OC)cc1 | > 100 µM | 18.2 µM | –
32 | O=C(O)c1cc(O)cc(O)c1N=Nc1ccc(CCc2ccc(N=Nc3c(O)cc(O)cc3C(=O)O)cc2S(=O)(=O)O)c(S(=O)(=O)O)c1 | 2.75 µM | 75.9 µM | –
33 | O=C1CCCC2COc3ccc(O)c1c32 (stereo not given) | – | – | inactive
34 | CC[C@@]1(C[C@H]2C[C@@]3(C(=O)OC)c4[nH]c5ccccc5c4CCN3C2=O)COC2(CCCCC2)O1 | > 200 µM | 35.5 µM | –
35 | COc1cccc(CCNc2c(C#N)c3nc4ccccc4n3c3ccccc23)c1 | > 200 µM | 0.295 µM | –
36 | O=C(NC/C(Cl)=C/Cl)Nc1c2ccccc2nc2ccccc12 | > 200 µM | 21.9 µM | –
37 | O=C(NCCCn1ccnc1[N+](=O)[O-])C(=O)NCCCn1ccnc1[N+](=O)[O-] | > 200 µM | > 200 µM | –
38 | c1ccc(C2=Nc3ccccc3C(c3ccccc3)=Nc3ccccc32)cc1 | > 72.4 µM | > 72.4 µM | –
39 | O=C(Nn1c(-c2ccccc2)nc2ccccc2c1=O)c1ccc(CS)cc1 | – | – | inactive
40 | COc1cc(C2C(C(=O)NCc3ccccc3)=C(C)NC(C)=C2C(=O)NCc2ccccc2)ccc1O | > 72.4 µM | 49 µM | –
41 | Brc1ccc(-c2nc(-c3ccc(Br)cc3)n(-c3ccccc3)n2)cc1 | > 200 µM | 93.3 µM | –
42 | O=S(=O)(CCn1c(Sc2ccccc2)c(Sc2ccccc2)c2ccccc21)c1ccccc1 | > 200 µM | > 200 µM | –
43 | Cc1cc(C)nc(NS(=O)(=O)c2ccc(NN=c3c4ccccc4n(C)c4ccccc34)cc2)n1 | > 200 µM | 11.2 µM | –
44 | Cc1cc(=O)oc2cc(O/C(=C\c3ccccc3)c3nc4ccccc4c(=O)o3)ccc12 | – | – | inactive

Row | SMILES | EC50 | IC50 | outcome
45 | O=C(O)c1ccc(CS(=O)(=O)c2ccc([N+](=O)[O-])cc2)c([N+](=O)[O-])c1 | > 676 µM | 324 µM | –
46 | Cc1n[nH]c(=O)n1/N=C\c1ccccc1 | > 200 µM | > 200 µM | –
47 | Oc1[nH]c(=S)[nH]c1/C=C1/C(c2ccccc2)=Nc2ccccc21 | > 200 µM | 9.33 µM | –
48 | CCOP(=O)(OCC)/C(=C\n1ccc(=O)[nH]c1=S)C(=O)OC | > 200 µM | > 200 µM | –
49 | O=C(O)c1c[nH]cc1C(=O)O | – | – | inactive
50 | CCOC(=O)c1sc2nc(SC)nc3c2c1N=CN3c1ccccc1Cl | > 100 µM | > 100 µM | –
51 | Cc1ncc([N+](=O)[O-])n1CCNC(=O)CCCn1ccnc1[N+](=O)[O-] | – | – | inactive
52 | COc1ccc(/C(C)=N/NC(=S)N(C)C)c(O)c1 | > 200 µM | 4.79 µM | –
53 | C=C(Br)CNCC(=C)Br | > 200 µM | 129 µM | –
54 | N#CCCN(CCC#N)c1ccc(/C=C2\N=C(c3ccccc3)N(c3ccc(Cl)cc3)C2=O)cc1 | > 200 µM | > 200 µM | –
55 | COC(=O)N1CC(=O)C(C(=O)NC23CC4CC(CC(C4)C2)C3)C1 (stereo not given) | > 776 µM | 141 µM | –
56 | COC(=O)C1=C(c2ccc(Cl)cc2)C(O)N=C(NN)N1 (stereo not given) | > 832 µM | > 832 µM | –
57 | NCCCCN(CCCN)Cc1ccccc1 | – | – | inactive
58 | Cc1n[nH]c(=O)n1-n1cccc1 | > 200 µM | > 200 µM | –
59 | C[C@H](O)CCC(=O)c1ccoc1 | > 1480 µM | > 1480 µM | –
60 | CC(C)(C)N1CC1CNC(=O)C(=O)NCC1CN1C(C)(C)C (stereo not given) | > 200 µM | 1.35 µM | –
61 | O=C(O)c1cc(=O)[nH]c(=O)[nH]1 | – | – | inactive
62 | O=c1[nH]c2ccccc2c(O)c1N=Nc1cccc(C(F)(F)F)c1 | > 200 µM | > 200 µM | –
63 | COc1ccc2c(c1)CCN1CCc3cc(OC)c(OC)cc3CC21 (stereo not given) | > 200 µM | 61.7 µM | –
64 | COC(=O)CCC(C)C1CCC2[C@@H]3CC[C@@H]4CC(=O)CC[C@]4(C)C3CC[C@]12C (stereo not given in full) | > 5.13 µM | > 5.13 µM | –
65 | O=C(CC(c1ccccc1)C1C(=O)C12CCCC2)c1ccccc1 (stereo not given) | > 81.3 µM | > 81.3 µM | –
66 | c1ccc(C2=Nc3nc4ccccc4n3C(c3ccccc3)C2)cc1 (stereo not given) | > 151 µM | > 151 µM | –

Row | SMILES | EC50 | IC50 | outcome
67 | COc1ccc(-c2cc(Cc3cccs3)c(=O)[nH]n2)cc1 | – | – | inactive
68 | CC(=O)OCC12CCC(C)=CC1OC1C(O)C(OC(C)=O)C2(C)C12CO2 (stereo not given) | > 3.39 µM | 0.00331 µM | –
69 | COC(=O)[C@@H]1C[C@@H](O)CN1C(=O)c1ccc([N+](=O)[O-])cc1[N+](=O)[O-] | > 200 µM | 129 µM | –
70 | CC1(C)CCCCCC(C)(CCCO)C1=O (stereo not given) | > 200 µM | > 200 µM | –
71 | CCCCCCCCCC(=O)Oc1cccc2onc(C)c12 | > 24 µM | > 24 µM | –
72 | CCCCCCCCCCCCCC/C(=C/OCC[N+](C)(C)C)OC(C)=O (tested in a mixture with another compound) | > 200 µM | 0.355 µM | –
73 | CC1=C(C(=O)NC2CCCCC2)CC(C(=O)NC2CCCCC2)=C(C)N1 | > 200 µM | 72.4 µM | –
74 | CN(C)c1ccc(/C=C(/C(=O)c2ccccc2)c2ccccc2)cc1 | > 15.8 µM | > 15.8 µM | –
75 | C/C(=C\CNc1ncnc2nc(Cl)[nH]c12)CO | > 200 µM | > 200 µM | –
76 | CCOC(=O)C[C@@]12CCCN[C@]1(C)CCc1ccccc12 | – | – | inactive
77 | CCOC(=O)/C(C#N)=C/Nc1c(C)n(C)n(-c2ccccc2)c1=O | > 200 µM | > 200 µM | –
78 | COc1ccc(NC(=O)Oc2ccc3c(C)cc(=O)oc3c2)c(OC)c1 | > 52.5 µM | > 52.5 µM | –
79 | CC(NC(=O)C(N)CC(=O)O)NC(=O)C1CCC1 (stereo not given) | > 200 µM | > 200 µM | –
80 | CC1=C(C(=O)O)N2C(=O)[C@@H](NC(=O)C(c3ccc(O)cc3)N3CSC(=S)N(C(C)C)C3)C2SC1 (stereo not given in full) | > 479 µM | 269 µM | –
81 | Cc1cccc2nc3nc(Cl)c(Cl)nc3n12 | > 200 µM | 129 µM | –
82 | COC(=O)/C=C(C)/C=C/c1c(C)c(C(C)=O)c(C)n1C | > 129 µM | > 129 µM | –
83 | N#CC(C#N)=c1ccc(=C2N3CCCC3CN2C23CC4CC(CC(C4)C2)C3)cc1 (stereo not given) | – | – | inactive
84 | S=C1N=C(Cl)C2(NN1)c1ccccc1-c1ccccc12 | > 200 µM | > 200 µM | –
85 | NNC(=O)C(=O)N/N=C(\CCCC(=O)Nc1ccc(Cl)cc1)CC(=O)c1ccc(F)cc1 | > 269 µM | > 269 µM | –

Reference: PubChem BioAssay AID179 (DTP/NCI, 2004)
